Data: patent US9765075B2, “Substituted bridged urea analogs as sirtuin modulators” (GLAXOSMITHKLINE LLC, priority 2013, dated 2017)
Read-outs that look alike come from different tables or passages of the source.

Target: T1, SIRT1 (Homo sapiens, UniProt Q96EB6)
T1 sequence (Q96EB6 1-747): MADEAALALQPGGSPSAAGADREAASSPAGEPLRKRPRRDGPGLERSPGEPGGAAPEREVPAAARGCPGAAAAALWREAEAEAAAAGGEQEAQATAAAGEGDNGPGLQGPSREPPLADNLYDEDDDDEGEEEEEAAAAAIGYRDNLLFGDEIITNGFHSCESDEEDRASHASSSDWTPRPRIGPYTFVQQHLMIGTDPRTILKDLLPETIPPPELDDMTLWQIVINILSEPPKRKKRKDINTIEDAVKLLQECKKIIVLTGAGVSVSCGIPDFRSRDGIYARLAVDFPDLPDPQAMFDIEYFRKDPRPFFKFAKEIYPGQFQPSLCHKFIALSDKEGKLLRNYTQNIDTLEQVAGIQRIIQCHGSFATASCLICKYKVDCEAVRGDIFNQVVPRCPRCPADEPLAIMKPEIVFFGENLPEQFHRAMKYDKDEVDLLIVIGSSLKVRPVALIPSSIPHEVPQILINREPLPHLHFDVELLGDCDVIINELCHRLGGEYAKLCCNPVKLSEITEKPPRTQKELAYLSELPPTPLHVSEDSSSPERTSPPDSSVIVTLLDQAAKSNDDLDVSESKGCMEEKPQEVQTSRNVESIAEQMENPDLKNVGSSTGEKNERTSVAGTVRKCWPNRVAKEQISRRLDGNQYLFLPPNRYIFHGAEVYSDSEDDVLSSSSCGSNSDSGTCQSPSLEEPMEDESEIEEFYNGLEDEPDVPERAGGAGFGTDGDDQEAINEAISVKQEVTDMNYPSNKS
Test: Trp mass spectrometry assay (SIRT1 activation)
Type: biochemical
Conditions: for Emax: percent maximum fold activation of SIRT1, read-out: Tryp % Fold Act
Method in brief: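 N-His-tagged SIRT1 (10 nM), expressed in E. coli, was incubated with 0.5 μM Ac-RHKK(Ac)W-NH2 peptide and 120 μM NAD+ for 25 min at 25 °C in HEPES pH 7.5 with […]. The reaction was stopped with formic acid and O-acetyl-ADP-ribose or deacetylated peptide was quantified by mass spectrometry. Results are given as EC1.5 and percent maximal activation relative to DMSO control.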

[1] = Trp mass spectrometry assay, EC1.5 = concentration of test compound that results in 150% activation of SIRT1
[2] = Trp mass spectrometry assay, EC1.5 = concentration giving 150% activation of SIRT1
[3] = concentration of test compound that results in 150% activation of SIRT1, Trp peptide substrate

| SMILES | Tryp AVG EC1.5 (μM) [1] | Emax (Trp mass spectrometry assay) [%] | Tryp AVG EC1.5 (μM) [2] | Tryp AVG EC1.5 (μM) [3] | Emax (Trp peptide substrate) [%] |
| --- | --- | --- | --- | --- | --- |
| Cn1cc(NC(=O)N2c3nc(-c4cccc(N5CCCC5)c4)ccc3N3CC[C@H]2C3)cn1 [Example 199] | B (EC1.5 1-25 μM) | ≥ 150 |  |  |  |
| O=C(Nc1cnccn1)N1c2nc(-c3cncc(C(F)(F)F)c3)ccc2N2CC[C@H]1C2 [Example 278] |  |  |  | A (EC1.5<1 μM) | ≥ 150 |
| O=C(Nc1ccccn1)N1c2nc(-c3cccc(N4CC[C@@H](F)C4)c3)ccc2N2CC[C@H]1C2 [Example 279] |  |  |  | A (EC1.5<1 μM) | ≥ 150 |
| COc1nccc(NC(=O)N2c3nc(-c4cccc(C(F)(F)F)c4)ccc3N3CCC2CC3)n1 [Example 169] | B (EC1.5 1-25 μM) | ≥ 150 |  |  |  |
| O=C(Nc1cnccn1)N1c2nc(-c3cccc(N4CCC(C(F)(F)F)C4)c3)ccc2N2CC[C@H]1C2 (some centres unmarked) [Example 319] |  |  |  | B (EC1.5 1-25 μM) | ≥ 150 |
| O=C(Nc1ccccn1)N1c2nc(-c3cccc(C(F)(F)F)c3F)ccc2N2CC[C@H]1C2 [Example 334] |  |  |  | B (EC1.5 1-25 μM) | ≥ 150 |
| COc1cc(NC(=O)N2c3nc(-c4cccc(OC[C@@H](O)CO)c4)ccc3N3CC[C@H]2C3)ncn1 [Example 156] | A (EC1.5<1 μM) | ≥ 150 |  |  |  |
| O=C(CCCCCNC(=O)c1ccc(-c2c3ccc(=O)cc-3oc3cc(O)ccc23)c(C(=O)O)c1)NCc1ccc(NC(=O)N2c3nc(-c4cccc(C(F)(F)F)c4)ccc3N3CCC[C@H]2C3)cc1 [546 (3)] |  |  |  | B (EC1.5 1-25 μM) | < 150 |
| O=C(Nc1cncc(F)c1)N1c2nc(-c3cccc(Cl)c3)ccc2N2CC[C@@H]1C2 [Example 218] |  |  |  | A (EC1.5<1 μM) | ≥ 150 |
| O=C(Nc1ccccn1)N1c2nc(-c3cccc(F)c3)ccc2N2CC[C@H]1C2 [Example 57] |  | ≥ 150 |  |  |  |
| O=C(Nc1ccccn1)N1c2nc(-c3ccnc(N4CCC(C(F)(F)F)C4)c3)ccc2N2CC[C@H]1C2 (some centres unmarked) [Example 367] |  |  |  | A (EC1.5<1 μM) | ≥ 150 |
| COc1cncc(NC(=O)N2c3nc(-c4cccc(Cl)c4)ccc3N3CC[C@H]2C3)n1 [Example 121] | A (EC1.5<1 μM) | ≥ 150 |  |  |  |
| O=C(Nc1cccnc1)N1c2nc(N3CCCC(C(F)(F)F)C3)ccc2N2CCC[C@H]1C2 (some centres unmarked) [Example 288] |  |  |  | A (EC1.5<1 μM) | ≥ 150 |
| COc1nccc(NC(=O)N2c3nc(-c4cccc(C(F)(F)F)c4)ccc3N3CC[C@H]2C3)n1 [Example 47] |  | ≥ 150 |  |  |  |
| Cc1cc(NC(=O)N2c3nc(N4CCCC(C(F)(F)F)C4)ccc3N3CC[C@H]2C3)cc(C)n1 (some centres unmarked) [Example 231] |  |  |  | B (EC1.5 1-25 μM) | ≥ 150 |
| COc1cc(NC(=O)N2c3nc(-c4cccc(CC(O)CO)c4)ccc3N3CC[C@H]2C3)ncn1 (some centres unmarked) [Example 355] |  |  |  | B (EC1.5 1-25 μM) | ≥ 150 |
| N#Cc1cc(-c2ccc3c(n2)N(C(=O)Nc2ccccn2)[C@H]2CCN3C2)ccc1F [Example 341] |  |  |  | A (EC1.5<1 μM) | ≥ 150 |
| O=C(Nc1ccncc1F)N1c2nc(-c3cccc(OC(F)(F)F)c3)ccc2N2CC[C@H]1C2 [Example 153] | A (EC1.5<1 μM) | ≥ 150 |  |  |  |
| CN(C)c1cccc(-c2ccc3c(n2)N(C(=O)Nc2cccc(-c4cnco4)c2)[C@@H]2CCCN3C2)c1 [Example 264] |  |  |  | A (EC1.5<1 μM) | ≥ 150 |
| O=C(Nc1ccc(F)cn1)N1c2nc(-c3cccc(Cl)c3)ccc2N2CC[C@H]1C2 [Example 43] |  | ≥ 150 |  |  |  |
| O=C(Nc1cccnc1)N1c2nc(-c3cccc(C(F)(F)F)c3)ccc2N2CCC[C@H]1C2 [314 (5)] |  |  |  | A (EC1.5<1 μM) | ≥ 150 |
| O=C(Nc1ccncc1F)N1c2nc(N3CCCC(C(F)(F)F)C3)ccc2N2CCC[C@H]1C2 (some centres unmarked) [Example 291] |  |  |  | B (EC1.5 1-25 μM) | ≥ 150 |
| Cc1cc2c(NC(=O)N3c4nc(-c5cccc(C(F)(F)F)c5)ccc4N4CC[C@H]3C4)cccc2nn1 [Example 86] |  | ≥ 150 |  |  |  |
| Cn1ncc2cc(NC(=O)N3c4nc(-c5cccc(N6CCCC6)c5)ccc4N4CC[C@H]3C4)ccc21 [Example 207] | A (EC1.5<1 μM) | ≥ 150 |  |  |  |
| CN(C)c1cccc(-c2ccc3c(n2)N(C(=O)Nc2ccc(F)cn2)[C@@H]2CCCN3C2)c1 [Example 253] |  |  |  | C (EC1.5>25 μM) | < 150 |
| O=C(Nc1ccncn1)N1c2nc(-c3cncc(Cl)c3)ccc2N2CC[C@H]1C2 [Example 249] |  |  |  | B (EC1.5 1-25 μM) | ≥ 150 |
| COc1ccc(-c2ccc3c(n2)N(C(=O)Nc2ccccn2)[C@H]2CCN3C2)cn1 [Example 342] |  |  |  | B (EC1.5 1-25 μM) | ≥ 150 |
| COc1cncc(NC(=O)N2c3nc(-c4cccc(C#N)c4)ccc3N3CC[C@H]2C3)n1 [Example 190] | B (EC1.5 1-25 μM) | ≥ 150 |  |  |  |
| O=C(Nc1ccc(F)cn1)N1c2nc(-c3cccc(N4CCCC4)c3)ccc2N2CC[C@H]1C2 [Example 131] | B (EC1.5 1-25 μM) | ≥ 150 |  |  |  |

Next, values leading:

| Tryp AVG EC1.5 (μM) [1] | Emax (Trp mass spectrometry assay) [%] | Tryp AVG EC1.5 (μM) [2] | Tryp AVG EC1.5 (μM) [3] | Emax (Trp peptide substrate) [%] | SMILES |
| --- | --- | --- | --- | --- | --- |
|  | ≥ 150 | A (EC1.5<1 μM) |  |  | O=C(Nc1cccc(-c2ccccc2)c1)N1c2nc(-c3cccc(C(F)(F)F)c3)ccc2N2CC[C@H]1C2 [Example 625] |
|  |  |  | C (EC1.5>25 μM) | < 150 | Cc1ccc(-c2cccc(NC(=O)N3c4nc(-c5cccc(C(F)(F)F)c5)ccc4N4CC[C@H]3C4)c2)cc1C [Example 619] |
|  |  |  | A (EC1.5<1 μM) | ≥ 150 | O=C(Nc1cccnc1)N1c2nc(-c3cccc(Cl)c3)ccc2N2CCC[C@H]1C2 [Example 407] |
|  |  |  | B (EC1.5 1-25 μM) | ≥ 150 | CS(=O)(=O)Nc1cccc(-c2ccc3c(n2)N(C(=O)Nc2cnccn2)[C@H]2CCN3C2)c1 [Example 418] |
|  |  |  | A (EC1.5<1 μM) | ≥ 150 | Cc1cncc(-c2ccc3c(n2)N(C(=O)Nc2cccnn2)[C@H]2CCCN3C2)c1 [Example 519] |
|  |  |  | C (EC1.5>25 μM) | < 150 | CC(C)(C)OC(=O)N1CCCN(c2ccc3c(n2)N(C(=O)Nc2ccncn2)[C@H]2CCCN3C2)CC1 [Example 382] |
|  | ≥ 150 | B (EC1.5 1-25 μM) |  |  | COc1cc(NC(=O)N2c3nc(-c4cccc(Cl)c4)ccc3N3C[C@@H](O)[C@H]2C3)ncn1 [Example 679] |
|  |  |  | B (EC1.5 1-25 μM) | ≥ 150 | CN(C)c1cccc(-c2ccc3c(n2)N(C(=O)Nc2ccc(F)cn2)[C@H]2CCCN3C2)c1 [Example 384] |
|  | ≥ 150 | A (EC1.5<1 μM) |  |  | O=C(Nc1nnc(-c2cccnc2)o1)N1c2nc(-c3cccc(C(F)(F)F)c3)ccc2N2CC[C@H]1C2 [Example 721] |
|  | ≥ 150 | A (EC1.5<1 μM) |  |  | Cc1cc(-c2ccc3c(n2)N(C(=O)Nc2cc(-c4cnco4)ccn2)[C@H]2CCN3C2)ccn1 [Example 746] |
|  |  |  | C (EC1.5>25 μM) | ≥ 150 | Cc1ccncc1-c1ccc2c(n1)N(C(=O)Nc1cnccn1)[C@H]1CCCN2C1 [Example 513] |
|  | ≥ 150 | A (EC1.5<1 μM) |  |  | CC(C)(C)OC(=O)NCCCc1ccc(NC(=O)N2c3nc(-c4cccc(C(F)(F)F)c4)ccc3N3CC[C@H]2C3)cc1-c1cnco1 [Example 750] |
|  |  |  | C (EC1.5>25 μM) | < 150 | Cc1ccncc1-c1ccc2c(n1)N(C(=O)Nc1ccncn1)[C@H]1CCCN2C1 [Example 518] |
|  |  |  | B (EC1.5 1-25 μM) | ≥ 150 | Cc1[nH]ncc1-c1ccc2c(n1)N(C(=O)Nc1cccnc1)[C@H]1CCN2C1 [Example 490] |
|  |  |  | A (EC1.5<1 μM) | ≥ 150 | O=C(Nc1ccncc1)N1c2nc(-c3ccnc(N4CC[C@H](F)C4)c3)ccc2N2CC[C@H]1C2 [Example 422] |
|  | ≥ 150 | B (EC1.5 1-25 μM) |  |  | O=C(NCCCc1ccccn1)N1c2nc(-c3cccc(C(F)(F)F)c3)ccc2N2CC[C@H]1C2 [Example 673] |
|  |  |  | A (EC1.5<1 μM) | ≥ 150 | O=C(Nc1ccc(F)cn1)N1c2nc(-c3ccnc(N4CC[C@H](F)C4)c3)ccc2N2CC[C@H]1C2 [Example 463] |
|  | ≥ 150 | A (EC1.5<1 μM) |  |  | O=C(Nc1cc(-c2cnco2)ccn1)N1c2nc(-c3cncc(F)c3)ccc2N2CC[C@H]1C2 [Example 727] |
|  |  |  | B (EC1.5 1-25 μM) | ≥ 150 | Cc1n[nH]cc1-c1ccc2c(n1)N(C(=O)Nc1ccccn1)[C@H]1CCN2C1 [Example 370] |
